From patent US20050048128A1, “Process for producing collagen production enhancers and use thereof” (priority 2001, published 2005)

Assays:
Format in all cases: cell-based
[1] = system: new-born hamster fibroblasts; experiment: Collagen production by L-ascorbic acid 2-glucoside or sodium L-ascorbate with or without royal jelly, seven-day culture (Experiment 3); conditions: for Collagen production level: no additions = 100, relative value ± SD
Method: Royal jelly was dissolved in D-MEM medium containing 10% (v/v) FCS to give a concentration of 200 μg/ml, and then L-ascorbic acid 2-glucoside was dissolved in the resulting medium to give a concentration of 0.2, 0.5 or 1.0 μg/ml in terms of the weight of L-ascorbic acid. As controls, L-ascorbic acid 2-glucoside was dissolved in D-MEM medium, supplemented with 10% (v/v) FCS but with no royal jelly, to give a concentration of 0.2, 0.5, or 1.0 μg/ml in terms of the weight of L-ascorbic acid. Similarly as in Experiment 1, new-born hamster fibroblasts were cultured for seven days in 6-well plates and further cultured for seven days after the supernatant in each plate was replaced with 5 ml of any of the above media, which dissolved the above-identified L-ascorbic acid 2-glucoside and royal jelly, or those prepared for use as controls. Thereafter, the collagen production level in each well was determined by the same method as in Experiment 1. As a negative control, a medium, supplemented with 200 μg/ml of royal jelly and 1 μg/ml of sodium L-ascorbate in terms of the weight of L-ascorbic acid, was added to the fibroblasts similarly as above, and the cells were cultured for seven days.
The fibroblasts with no addition of L-ascorbic acid 2-glucoside gave a lower collagen production level similarly as that of the control in Experiment 1, independently of the addition of royal jellies. When ascorbic acid 2-glucoside was added to give a concentration of 0.2 μg/ml or more, the collagen production level was enhanced as compared with the system with no L-ascorbic acid 2-glucoside, and the level was more enhanced by the addition of royal jellies.

[2] = system: new-born hamster fibroblasts; experiment: TGF-β production by fibroblasts, TGF-β1 Emax ImmunoAssay System (Experiment 4); conditions: 24 hours, no additions = 100, relative value ± SD
Method: To study the mechanism of the enhancement of collagen production by royal jellies and/or L-ascorbic acids, the influence of royal jelly and/or L-ascorbic acid 2-glucoside, which had been reported to enhance the production of mRNA for collagen in fibroblasts, on the production of TGF-β was examined by the following method: • (1) Assay for TGF-β: • TGF-β was assayed on TGF-β1 Emax ImmunoAssay System, commercialized by Promega Corporation, Tokyo, Japan. • (2) Assay for TGF-β produced by fibroblasts in the presence of royal jelly and/or L-ascorbic acid 2-glucoside: • TGF-β was assayed by inoculating 1×10^4 cells/well of new-born hamster fibroblasts, prepared by the method similarly as in Experiment 1, to 96-well microplates, commercialized by Nippon Becton. […]

[3] = system: new-born hamster fibroblasts; experiment: Collagen production by new-born hamster fibroblasts, [2,3-3H] proline taken into collagen (Experiment 1); conditions: for Relative amount of collagen production: no addition = 100, relative value ± SD
Method: According to conventional manner, the dorsum skin of a new-born hamster was cut and detached, and fibroblasts were isolated from the detached skin. The preparation method is outlined below: To detach the epidermis from the dermis, the debris was placed and allowed to stand at 4° C. overnight in Eagle's minimum essential medium, commercialized by Nippon Suisan Kaisha, Ltd., Tokyo, Japan, containing 0.03 mM Ca^2+, in which 500 units/ml of a dispase commercialized by Godo Shusei Co., Ltd., Tokyo, Japan, was dissolved. The detached dermis was kept at 37° C. for one hour in Dulbecco minimum essential medium (abbreviated as “D-MEM”, hereinafter), commercialized by Nippon Suisan Kaisha, Ltd., Tokyo, Japan, in which 0.25% (v/v) of a collagenase commercialized by Amano Enzyme, Aichi, Japan, was dissolved. Thereafter, the resulting cell debris of the dermis were pipetted into a cell suspension with singly dispersed cells of new-born hamster fibroblasts, followed by collecting the cells by centrifugation. The cells were suspended in phosphate-buffered saline and allowed to stand for 30 min, followed by centrifugally collecting the resulting supernatant with fibroblasts and re-suspending the cells in D-MEM supplemented with 10% (v/v) of a fetal bovine serum (abbreviated as “FCS”, hereinafter) commercialized by GIBCO Bethesda Research Laboratories, Bethesda, Md., USA, into a cell suspension for use in the following assay for collagen production level.
The following cells were cultured in an incubator with 5% (v/v) CO2 at 37° C. Three milliliter aliquots of the cell suspension of new-born hamster fibroblasts, prepared in the above 3, were seeded in 6-well plates to give a cell density of 4×10^5 cells/well and cultured for seven days. To D-MEM supplemented with 10% (v/v) FCS was added and dissolved therein L-ascorbic acid to give a concentration of 0.0, 0.1, 0.2, 0.5, 1.0, 2.0, 5.0, 10.0, 20.0, 50.0, 100.0, or 200.0 μg/ml. Similarly as above, either a heated royal jelly or an unheated royal jelly was added to and dissolved in D-MEM supplemented with 10% (v/v) FCS to give a concentration of 0.0, 0.1, 0.2, 0.5, 1.0, 2.0, 5.0, 10.0, 20.0, 50.0, 100.0, 200.0, or 500.0 μg/ml. Five milliliter aliquot of any one of the above media supplemented with L-ascorbic acid or the heated or unheated royal jelly was added to each well of the plates, which had been removed off the culture supenatants of fibroblast cultures, followed by culturing the cells for three days. Thereafter, the supernatant in each well was replaced with five milliliters of a fresh medium supplemented with the same concentration of L-ascorbic acid or the heated or unheated royal jelly as mentioned-above, and the cells were sequentially cultured for three days, replaced with one milliliter of a fresh medium having the same concentration of L-ascorbic acid or the heated or unheated royal jelly as mentioned-above, cultured for three hours, admixed with [2,3-^3H] proline (40 Ci/mmol) commercialized by Amersham Corp., Div. Amersham International, Ill., USA, which had been dissolved in D-MEM to give a concentration of 3 μCi/well, and further cultured overnight. All the culture media, including those supplemented with L-ascorbic acid or the heated or unheated royal jelly, used in this experiment, were filtered with a 0.22 μm filter before use.
In the above 4, after the fibroblasts of new-born hamster were cultured in the presence of [2,3-^3H] proline, collagen was extracted from the cells in a usual manner and quantified for [2,3-^3H] proline taken thereinto. The quantitation was carried out by the method disclosed by Seong-Jin Kim et al. in Dermatologic Surgery, Vol. 24, pp. 1,054-1,058 (1998). […]

[4] = system: new-born hamster fibroblasts; experiment: Influence of royal jelly on the collagen production by L-ascorbic acid, significant difference test (Experiment 2)
Method: Using the assay system for the collagen production level used in Experiment 1, it was studied the influence of royal jellies on the collagen production by L-ascorbic acids: New-born hamster fibroblasts, prepared similarly as the method in Experiment 1, were seeded in 6-well plates and cultured for seven days. […] In this experiment, three wells were used for each concentration. The results were evaluated whether there existed a significant difference between the count in a control system and those in the test systems with different concentrations of heated or unheated royal jelly, based on the count for the control system with no royal jelly that was detected by a liquid scintillation counter, as a control.

[5] = system: new-born hamster fibroblasts; experiment: Collagen production by L-ascorbic acid 2-glucoside or sodium L-ascorbate with or without royal jelly, seven-day culture (Experiment 3); conditions: 1 μg/ml L-ascorbic acid, three days, medium replaced with fresh one, three further days; data omitted
[6] = L-ascorbic acid 2-glucoside 0.2 μg/ml (as L-ascorbic acid) with royal jelly 200 μg/ml
[7] = L-ascorbic acid 2-glucoside 0.2 μg/ml (as L-ascorbic acid), no royal jelly

`O=C1O[C@H]([C@@H](O)CO)C(O)=C1O[C@H]1O[C@H](CO)[C@@H](O)[C@H](O)[C@H]1O` [L-ascorbic acid 2-glucoside] was tested, and the Collagen production level [1, 6] was 298 ± 30, the Collagen production level [1, 7] was 219 ± 31 and the Collagen production level ([1]; L-ascorbic acid 2-glucoside 0.5 μg/ml (as L-ascorbic acid) with royal jelly 200 μg/ml) was 1440 ± 70. For the same compound, the Collagen production level ([1]; L-ascorbic acid 2-glucoside 0.5 μg/ml (as L-ascorbic acid), no royal jelly) was 527 ± 17, the Collagen production level ([1]; L-ascorbic acid 2-glucoside 1.0 μg/ml (as L-ascorbic acid) with royal jelly 200 μg/ml) was 3168 ± 318 and the Collagen production level ([1]; L-ascorbic acid 2-glucoside 1.0 μg/ml (as L-ascorbic acid), no royal jelly) was 2250 ± 436. The “Concentration of L-ascorbic acid 2-glucoside at which the collagen production level was enhanced” value ([1]; compared with the system with no L-ascorbic acid 2-glucoside) was no less than 0.2 µg/mL, the “Stability dissolved in media” value ([1]; culture medium, seven days, compared with L-ascorbic acid) was “advantageously more stable as compared with L-ascorbic acid” and the “Production level of TGF-β” value [2, 6] was 132 ± 12. For the same compound, the “Production level of TGF-β” value [2, 7] was 111 ± 5.
With `O=C1O[C@H]([C@@H](O)CO)C([O-])=C1O.[Na+]` [L-ascorbic acid, Sodium L-ascorbate] the “Relative amount of collagen production” value ([3]; L-ascorbic acid 0.1 μg/ml) was 95 ± 13, the “Relative amount of collagen production” value ([3]; L-ascorbic acid 0.2 μg/ml) was 118 ± 26 and the “Relative amount of collagen production” value ([3]; L-ascorbic acid 0.5 μg/ml) was 210 ± 33. The “Relative amount of collagen production” value ([3]; L-ascorbic acid 1.0 μg/ml) was 482 ± 89, the “Relative amount of collagen production” value ([3]; L-ascorbic acid 2.0 μg/ml) was 1497 ± 155 and the “Relative amount of collagen production” value ([3]; L-ascorbic acid 5.0 μg/ml) was 1755 ± 151. The “Relative amount of collagen production” value ([3]; L-ascorbic acid 10.0 μg/ml) was 2089 ± 160, the “Relative amount of collagen production” value ([3]; L-ascorbic acid 20.0 μg/ml) was 2456 ± 186 and the “Relative amount of collagen production” value ([3]; L-ascorbic acid 50.0 μg/ml) was 2841 ± 341. The “Relative amount of collagen production” value ([3]; L-ascorbic acid 100.0 μg/ml) was 2956 ± 500, the “Relative amount of collagen production” value ([3]; L-ascorbic acid 200.0 μg/ml) was 2863 ± 456 and the “Minimum effective amount of L-ascorbic acid for producing collagen” value ([3]; sole use) was 0.5 µg/mL. For the same compound, the “Concentration at which the level of collagen production reached a plateau level” value ([3]; sole use, no significant increase above) was no less than 50 µg/mL and the “Lowest concentration of L-ascorbic acid exerting the collagen-production action in combination with royal jelly” value [4] was 0.2 µg/mL.
For Sodium L-ascorbate [L-ascorbic acid], the “Collagen production with medium replacement” value [5] was “enhanced level of collagen production” and the “Enhancement of collagen production, negative control” value ([1]; 1 μg/ml sodium L-ascorbate (as L-ascorbic acid) with 200 μg/ml royal jelly, seven days, medium not replaced) was “no enhancement of collagen production”.
